Holding throughout (experiment): relative viability (nuclei count vs DMSO), 5 days (fraction); higher = more cells survive
Compound in assay [1]: C1COCCN1C2=NC(=NC3=C2OC4=C3C=CC=N4)C5=CC(=CC=C5)NC(=O)C6=CN=C(C=C6)N + CC(C)C[C@H](NC(=O)[C@H](Cc1ccccc1)NC(=O)c1cnccn1)B(O)O [Bortezomib] (partner 0.002 µM)
The procedure, abridged:
(§1)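 Lung cancer cell lines, seeded in 1536-well plates, were treated the following day by pin tool with a single drug or with five library-drug doses (not always all listed) in √10 steps on top of a fixed anchor-drug dose. Cells were fixed and nuclei stained in one step after 5 days, and nuclei were counted. Relative viability is the nuclei count for treated wells divided by that for vehicle wells, reported as medians of duplicate plates.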

Compound in the assay “SGI-1776 + Linsitinib”: CN1CCC(CNc2ccc3ncc(-c4cccc(OC(F)(F)F)c4)n3n2)CC1 [SGI-1776] + C[C@]1(O)C[C@@H](c2nc(-c3ccc4ccc(-c5ccccc5)nc4c3)c3c(N)nccn32)C1 [Linsitinib] (partner 1 µM)
The procedure, abridged: as §1

Compound in assay [2]: C1COCCN1C2=NC(=NC3=C2OC4=C3C=CC=N4)C5=CC(=CC=C5)NC(=O)C6=CN=C(C=C6)N + CC(=O)c1c(C)c2cnc(Nc3ccc(N4CCNCC4)cn3)nc2n(C2CCCC2)c1=O [Palbociclib] (partner 0.5 µM)
The procedure, abridged:
as §1

Compound in the assay “Entinostat + OSI-027”: Nc1ccccc1NC(=O)c1ccc(CNC(=O)OCc2cccnc2)cc1 [Entinostat] + COc1cccc2cc(-c3nc([C@H]4CC[C@H](C(=O)O)CC4)n4ncnc(N)c34)[nH]c12 [OSI-027] (partner 0.5 µM)
The procedure, abridged: as §1

On to NCI-H1299, for which the relative viability in assay [1] (first compound 0.02 µM) came out at 1.06; in assay [1] (first compound 0.06325 µM) it was 1.05; in assay [1] (first compound 0.2 µM), 1.02; in assay [1] (first compound 0.6325 µM) it was 1.03; in assay [1] (first compound 2 µM), 0.798; with SGI-1776 + Linsitinib (first compound 0.08 µM), 1.02. The figures for the relative viability with SGI-1776 + Linsitinib (first compound 0.8 µM), with SGI-1776 + Linsitinib (first compound 2.53 µM) and with SGI-1776 + Linsitinib (first compound 8 µM) were 0.972, 0.966 and 0.921, respectively.

Turning to NCI-H1395, the relative viability in assay [2] (first compound 0.02 µM) worked out at 0.602; in assay [2] (first compound 0.06325 µM), 0.597; in assay [2] (first compound 0.2 µM), 0.617; in assay [2] (first compound 0.6325 µM), 0.592; in assay [2] (first compound 2 µM), 0.645; with SGI-1776 + Linsitinib (first compound 0.08 µM), 1.19. Besides, the relative viability in the assay with SGI-1776 + Linsitinib (first compound 0.8 µM) turned out to be 1.08; with SGI-1776 + Linsitinib (first compound 2.53 µM), 0.938; with SGI-1776 + Linsitinib (first compound 8 µM), 0.746; with Entinostat + OSI-027 (first compound 0.02 µM) it was 0.716; in the assay with Entinostat + OSI-027 (first compound 0.06325 µM), 0.764; in the assay with Entinostat + OSI-027 (first compound 0.2 µM) it was 0.583. Also, the relative viability was determined as 0.647 with Entinostat + OSI-027 (first compound 0.6325 µM) and 0.505 with Entinostat + OSI-027 (first compound 2 µM).

Consider NCI-H1563, for which the relative viability in assay [1] (first compound 0.02 µM) turned out to be 0.883; in assay [1] (first compound 0.06325 µM), 0.81; in assay [1] (first compound 0.2 µM) it was 0.84; in assay [1] (first compound 0.6325 µM), 0.665; in assay [1] (first compound 2 µM), 0.589; in the assay with SGI-1776 + Linsitinib (first compound 0.08 µM), 1.14. The relative viability was 1.19 with SGI-1776 + Linsitinib (first compound 0.8 µM); 1.16 in the assay with SGI-1776 + Linsitinib (first compound 2.53 µM); 1.08 with SGI-1776 + Linsitinib (first compound 8 µM); 0.723 with Entinostat + OSI-027 (first compound 0.02 µM); 0.687 in the assay with Entinostat + OSI-027 (first compound 0.06325 µM); 0.707 in the assay with Entinostat + OSI-027 (first compound 0.2 µM). The relative viability with Entinostat + OSI-027 (first compound 0.6325 µM) is 0.653; with Entinostat + OSI-027 (first compound 2 µM) it was 0.547.

Regarding NCI-H1623, the relative viability with Entinostat + OSI-027 (first compound 0.02 µM) worked out at 0.445; in the assay with Entinostat + OSI-027 (first compound 0.06325 µM), 0.565; with Entinostat + OSI-027 (first compound 0.2 µM), 0.429; with Entinostat + OSI-027 (first compound 0.6325 µM) it was 0.298; in the assay with Entinostat + OSI-027 (first compound 2 µM) it was 0.339.

As to NCI-H1648, the relative viability in assay [2] (first compound 0.02 µM) was 0.252; in assay [2] (first compound 0.06325 µM), 0.252; in assay [2] (first compound 0.2 µM), 0.255; in assay [2] (first compound 0.6325 µM), 0.212; in assay [2] (first compound 2 µM) it was 0.222; with Entinostat + OSI-027 (first compound 0.02 µM), 0.247. Further, the relative viability in the assay with Entinostat + OSI-027 (first compound 0.06325 µM) worked out at 0.27; with Entinostat + OSI-027 (first compound 0.2 µM), 0.257; in the assay with Entinostat + OSI-027 (first compound 0.6325 µM), 0.271; with Entinostat + OSI-027 (first compound 2 µM) it was 0.296.

As to NCI-H1650, the relative viability in assay [2] (first compound 0.02 µM) was found to be 0.336; in assay [2] (first compound 0.06325 µM) it was 0.321; in assay [2] (first compound 0.2 µM), 0.274; in assay [2] (first compound 0.6325 µM), 0.39; in assay [2] (first compound 2 µM), 0.287; in assay [1] (first compound 0.02 µM), 0.179. Moreover, the relative viability in assay [1] (first compound 0.06325 µM) was found to be 0.23; in assay [1] (first compound 0.2 µM) it was 0.205; in assay [1] (first compound 0.6325 µM), 0.191; in assay [1] (first compound 2 µM), 0.188; with Entinostat + OSI-027 (first compound 0.02 µM) it was 0.73; in the assay with Entinostat + OSI-027 (first compound 0.06325 µM), 0.585. Further, the values for the relative viability with Entinostat + OSI-027 (first compound 0.2 µM), in the assay with Entinostat + OSI-027 (first compound 0.6325 µM) and in the assay with Entinostat + OSI-027 (first compound 2 µM) were 0.589, 0.349 and 0.184, respectively.

As for NCI-H1703, the relative viability in assay [1] (first compound 0.02 µM) was determined as 0.229; in assay [1] (first compound 0.06325 µM), 0.278; in assay [1] (first compound 0.2 µM), 0.249; in assay [1] (first compound 0.6325 µM) it was 0.267; in assay [1] (first compound 2 µM), 0.236; with SGI-1776 + Linsitinib (first compound 0.08 µM), 0.662. In addition, the relative viability in the assay with SGI-1776 + Linsitinib (first compound 0.8 µM) stood at 0.979; with SGI-1776 + Linsitinib (first compound 2.53 µM), 0.433; in the assay with SGI-1776 + Linsitinib (first compound 8 µM) it was 0.13.

As to NCI-H1793, the relative viability in assay [2] (first compound 0.02 µM) amounted to 0.306; in assay [2] (first compound 0.06325 µM), 0.335; in assay [2] (first compound 0.2 µM), 0.317; in assay [2] (first compound 0.6325 µM), 0.218; in assay [2] (first compound 2 µM), 0.255; with SGI-1776 + Linsitinib (first compound 0.08 µM), 1.06. Also, the relative viability with SGI-1776 + Linsitinib (first compound 0.8 µM) is 0.895; in the assay with SGI-1776 + Linsitinib (first compound 2.53 µM) it was 1; with SGI-1776 + Linsitinib (first compound 8 µM) it was 0.794; in the assay with Entinostat + OSI-027 (first compound 0.02 µM), 0.291; with Entinostat + OSI-027 (first compound 0.06325 µM) it was 0.316; with Entinostat + OSI-027 (first compound 0.2 µM), 0.285. Further, the values for the relative viability with Entinostat + OSI-027 (first compound 0.6325 µM) and with Entinostat + OSI-027 (first compound 2 µM) were 0.2 and 0.204, respectively.

NCI-H1944: the relative viability in assay [2] (first compound 0.02 µM) was 0.354; in assay [2] (first compound 0.06325 µM), 0.381; in assay [2] (first compound 0.2 µM) it was 0.336; in assay [2] (first compound 0.6325 µM), 0.304; in assay [2] (first compound 2 µM), 0.253; with SGI-1776 + Linsitinib (first compound 0.08 µM) it was 1.15. For the same cell line, the relative viability in the assay with SGI-1776 + Linsitinib (first compound 0.8 µM) was determined as 1.31; in the assay with SGI-1776 + Linsitinib (first compound 2.53 µM), 1.21; with SGI-1776 + Linsitinib (first compound 8 µM), 1.05; with Entinostat + OSI-027 (first compound 0.02 µM), 0.382; with Entinostat + OSI-027 (first compound 0.06325 µM), 0.404; in the assay with Entinostat + OSI-027 (first compound 0.2 µM), 0.362. Besides, the relative viability with Entinostat + OSI-027 (first compound 0.6325 µM) came to 0.233; in the assay with Entinostat + OSI-027 (first compound 2 µM) it was 0.208.

Take NCI-H2170: the relative viability in assay [2] (first compound 0.02 µM) was 0.405; in assay [2] (first compound 0.06325 µM), 0.395; in assay [2] (first compound 0.2 µM), 0.407; in assay [2] (first compound 0.6325 µM), 0.422; in assay [2] (first compound 2 µM), 0.275; with Entinostat + OSI-027 (first compound 0.02 µM) it was 0.745. The relative viability was determined as 0.65 with Entinostat + OSI-027 (first compound 0.06325 µM), 0.742 with Entinostat + OSI-027 (first compound 0.2 µM), 0.607 in the assay with Entinostat + OSI-027 (first compound 0.6325 µM) and 0.373 in the assay with Entinostat + OSI-027 (first compound 2 µM).

On to NCI-H2342, for which the relative viability in assay [2] (first compound 0.02 µM) is 0.525; in assay [2] (first compound 0.06325 µM), 0.522; in assay [2] (first compound 0.2 µM), 0.505; in assay [2] (first compound 0.6325 µM), 0.512; in assay [2] (first compound 2 µM), 0.515; with Entinostat + OSI-027 (first compound 0.02 µM), 0.651. For the same cell line, the relative viability with Entinostat + OSI-027 (first compound 0.06325 µM) was determined as 0.587; with Entinostat + OSI-027 (first compound 0.2 µM), 0.629; in the assay with Entinostat + OSI-027 (first compound 0.6325 µM), 0.598; with Entinostat + OSI-027 (first compound 2 µM), 0.524.

As for SK-MES-1, the relative viability in assay [2] (first compound 0.02 µM) is 0.314; in assay [2] (first compound 0.06325 µM) it was 0.329; in assay [2] (first compound 0.2 µM) it was 0.294; in assay [2] (first compound 0.6325 µM), 0.276; in assay [2] (first compound 2 µM), 0.312; with SGI-1776 + Linsitinib (first compound 0.08 µM), 1.09. In addition, the relative viability with SGI-1776 + Linsitinib (first compound 0.8 µM) was 1.09; in the assay with SGI-1776 + Linsitinib (first compound 2.53 µM), 1.14; with SGI-1776 + Linsitinib (first compound 8 µM), 1.03; with Entinostat + OSI-027 (first compound 0.02 µM), 0.584; with Entinostat + OSI-027 (first compound 0.06325 µM), 0.66; with Entinostat + OSI-027 (first compound 0.2 µM), 0.792. Also, the values for the relative viability with Entinostat + OSI-027 (first compound 0.6325 µM) and with Entinostat + OSI-027 (first compound 2 µM) were 0.595 and 0.532, respectively.

Take SW 900: the relative viability worked out at 0.52 in assay [2] (first compound 0.02 µM); 0.555 in assay [2] (first compound 0.06325 µM); 0.525 in assay [2] (first compound 0.2 µM); 0.548 in assay [2] (first compound 0.6325 µM); 0.345 in assay [2] (first compound 2 µM); 0.696 with Entinostat + OSI-027 (first compound 0.02 µM). For the same cell line, the relative viability in the assay with Entinostat + OSI-027 (first compound 0.06325 µM) came out at 0.659; with Entinostat + OSI-027 (first compound 0.2 µM) it was 0.647; with Entinostat + OSI-027 (first compound 0.6325 µM) it was 0.319; in the assay with Entinostat + OSI-027 (first compound 2 µM), 0.397.

Source of the values: the supplement of paper PMC10307832.
